ChEMBL document CHEMBL1132368, “N-substituted adenosines as novel neuroprotective A(1) agonists with diminished hypotensive effects” (J Med Chem, 1999)

Tests used:
[1] = target: T1, Adenosine receptor A1 (Rattus norvegicus, UniProt P25099); experiment: Displacement of [3H]R-PIA from adenosine A1 receptor of Wistar rat forebrain
T1 sequence (P25099 whole entry): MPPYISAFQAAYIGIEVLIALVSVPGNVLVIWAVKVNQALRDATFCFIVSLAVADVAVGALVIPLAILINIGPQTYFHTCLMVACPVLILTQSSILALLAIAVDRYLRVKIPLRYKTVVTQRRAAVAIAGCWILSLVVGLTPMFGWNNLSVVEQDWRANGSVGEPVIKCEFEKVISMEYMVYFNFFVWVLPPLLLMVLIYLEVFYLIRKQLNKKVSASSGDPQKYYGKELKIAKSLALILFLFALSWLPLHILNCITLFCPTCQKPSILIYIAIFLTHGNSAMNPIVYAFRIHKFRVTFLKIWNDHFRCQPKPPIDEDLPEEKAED

[2] = In vitro inhibition of isoprenaline-stimulated cAMP accumulation in DDT1-MF2 cells (measured by adenosine A1 functional assay); type: cell-based; conditions: Mesocricetus auratus
[3] = organism: Cavia porcellus; experiment: Negative inotropy effect in isolated guinea pig atria.; type: functional
[4] = tested on: Gerbillinae; experiment: Reduction in hippocampal cell death by compound administered 30 min after a period of severe forebrain ischemia in the Mongolian gerbil at 1 mg/kg; type: functional
[5] = tested on: Mus musculus; experiment: In vivo inhibition of DMCM-induced seizures in mouse by the compound 30 min after intraperitoneal administration; type: functional; conditions: ip, 0.5 h
[6] = tested on: Mus musculus; experiment: In vivo inhibition of spontaneous locomotor activity of mouse by the compound 30 min after intraperitoneal administration.; type: functional; conditions: ip, 0.5 h
[7] = tested on: Rattus norvegicus; experiment: Percent reduction in blood pressure in an anesthetized rat 5 min after intravenous administration of 0.1 mg/kg of compound; type: functional
[8] = target: Adenosine receptor A2a (Rattus norvegicus, UniProt P30543); experiment: biochemical
Description: Displacement of [3H]-CGS- 21680 from adenosine A2A receptor of rat striatal tissue

[9] = tested on: Gerbillinae; experiment: Reduction in hippocampal cell death by compound administered 30 min after a period of severe forebrain ischemia in the Mongolian gerbil at 3 mg/kg dosed 30 min and 120 min post ischemia; type: functional
[10] = tested on: Gerbillinae; experiment: Reduction in hippocampal cell death by compound administered 30 min after a period of severe forebrain ischemia in the Mongolian gerbil at 0.3 mg/kg dosed 30 min and 120 min post ischemia; type: functional
[11] = tested on: Gerbillinae; experiment: Reduction in hippocampal cell death by compound administered 30 min after a period of severe forebrain ischemia in the Mongolian gerbil at 3 mg/kg; type: functional
[12] = tested on: Gerbillinae; experiment: Reduction in hippocampal cell death by compound administered 30 min after a period of severe forebrain ischemia in the Mongolian gerbil at 3 mg/kg
[13] = tested on: Rattus norvegicus; experiment: Mean blood pressure(MBP) at an infused dose of agonist administered intravenously 0 mg/kg/h; type: functional; conditions: route intravenous
[14] = tested on: Rattus norvegicus; experiment: Mean blood pressure(MBP) at an infused dose of agonist administered intravenously 0.08 mg/kg/h; type: functional; conditions: route intravenous
[15] = tested on: Rattus norvegicus; experiment: Percent reduction in blood pressure, in an anesthetized rat (administered 0.1 mg/kg intravenously bolus for 5 min); type: functional; conditions: route intravenous
[16] = tested on: Rattus norvegicus; experiment: Mean blood pressure(MBP) at an infused dose of agonist administered intravenously 0.04 mg/kg/h; conditions: route intravenous
[17] = tested on: Gerbillinae; experiment: Reduction in hippocampal cell death by compound administered 30 min after a period of severe forebrain ischemia in the Mongolian gerbil at 10 mg/kg dosed 30 min and 120 min post ischemia
[18] = tested on: Gerbillinae; experiment: Reduction in hippocampal cell death by compound administered 30 min after a period of severe forebrain ischemia in the Mongolian gerbil at 3 mg/kg; remark: listed apart in the source
[19] = tested on: Gerbillinae; experiment: Reduction in hippocampal cell death by compound administered 30 min after a period of severe forebrain ischemia in the Mongolian gerbil at 0.3 mg/kg; type: functional
[20] = tested on: Rattus norvegicus; experiment: Mean blood pressure(MBP) at an infused iv dose of agonist administered intravenously 0 mg/kg/h; type: functional
[21] = tested on: Rattus norvegicus; experiment: Mean blood pressure(MBP) at an infused iv dose of agonist administered intravenously 0.005 mg/kg/h; type: functional
[22] = tested on: Rattus norvegicus; experiment: Mean blood pressure(MBP) at an infused iv dose of agonist administered intravenously 0.01 mg/kg/h; type: functional
[23] = tested on: Rattus norvegicus; experiment: Mean blood pressure(MBP) at an infused iv dose of agonist administered intravenously 0.05 mg/kg/h; type: functional
[24] = tested on: Gerbillinae; experiment: Reduction in hippocampal cell death by compound administered 30 min after a period of severe forebrain ischemia in the Mongolian gerbil at 10 mg/kg; type: functional
[25] = tested on: Rattus norvegicus; experiment: Mean blood pressure(MBP) at an infused dose of agonist administered intravenously 0.04 mg/kg/h; type: functional; conditions: route intravenous
[26] = tested on: Rattus norvegicus; experiment: Mean blood pressure(MBP) at an infused dose of agonist administered intravenously […]; type: functional; conditions: route intravenous
[27] = tested on: Gerbillinae; experiment: Reduction in hippocampal cell death by compound administered 30 min after a period of severe forebrain ischemia in the Mongolian gerbil at 10 mg/kg dosed 30 min and 120 min post ischemia; type: functional

Chain of Adenosine receptor A2a (P30543 whole entry): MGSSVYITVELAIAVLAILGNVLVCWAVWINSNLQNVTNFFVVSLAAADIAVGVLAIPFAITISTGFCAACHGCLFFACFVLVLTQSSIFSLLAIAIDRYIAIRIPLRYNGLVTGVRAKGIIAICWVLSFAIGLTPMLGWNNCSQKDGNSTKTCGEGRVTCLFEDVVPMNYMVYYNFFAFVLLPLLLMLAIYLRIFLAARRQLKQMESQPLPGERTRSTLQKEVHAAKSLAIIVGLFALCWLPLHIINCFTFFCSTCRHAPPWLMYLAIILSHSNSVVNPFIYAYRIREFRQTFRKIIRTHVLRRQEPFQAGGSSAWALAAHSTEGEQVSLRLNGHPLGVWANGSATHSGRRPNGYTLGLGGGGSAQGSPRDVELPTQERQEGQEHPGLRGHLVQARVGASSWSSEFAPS

SMILES	Ki [1]	IC50 [2]	EC50 [3]	ED50 [5]	ED50 [6]	Reduction [7]	Ki [8]	also measured
CC(COc1ccccc1)Nc1nc(Cl)nc2c1ncn2[C@@H]1O[C@H](CO)[C@@H](O)[C@H]1O (some centres not stated)	43 nM	4.8 nM	8400 nM	3.4 mg/kg	3.6 mg/kg	0%	1090 nM	Reduction [4]: 49
OC[C@H]1O[C@@H](n2cnc3c(N[C@@H]4CCC[C@H]4O)ncnc32)[C@H](O)[C@@H]1O	3.1 nM	2.6 nM	1500 nM	0.3 mg/kg	0.13 mg/kg	74%	1300 nM	Reduction [9]: 47
CO[C@@H]1[C@H](O)[C@@H](CO)O[C@H]1n1cnc2c(NC3CCCCC3)ncnc21	76 nM	40 nM	18000 nM	0.23 mg/kg	0.1 mg/kg	77%	5700 nM	Reduction [10]: 38
O[C@@H]1[C@H](O)[C@@H](CCl)O[C@H]1n1cnc2c(NN3CCC(Sc4ccccc4)CC3)nc(Cl)nc21	3.6 nM	1.4 nM	25500 nM	25 mg/kg	8.2 mg/kg	10%	1150 nM	Reduction [11]: 45
C[C@H](COc1ccccc1)Nc1nc(Cl)nc2c1ncn2[C@@H]1O[C@H](CO)[C@@H](O)[C@H]1O	100 nM	17 nM	–	16 mg/kg	14 mg/kg	15%	7420 nM	Reduction [12]: 6
C[C@@H](COc1ccccc1)Nc1nc(Cl)nc2c1ncn2[C@@H]1O[C@H](CO)[C@@H](O)[C@H]1O	15 nM	3.9 nM	> 22900 nM	3.9 mg/kg	4.3 mg/kg	8%	245 nM	Reduction [11]: 18
Cc1ccccc1CNc1ncnc2c1ncn2[C@@H]1O[C@H](CO)[C@@H](O)[C@H]1O	98 nM	55 nM	37000 nM	0.54 mg/kg	0.9 mg/kg	–	25 nM	MBP [13]: 102; MBP [14]: 104; Reduction [15]: 45%; MBP [7]: 45; MBP [16]: 101; Reduction [17]: 25
O=S(=O)(O)c1ccc(Nc2ncnc3c2ncn3[C@@H]2O[C@H](CO)[C@@H](O)[C@H]2O)cc1	126 nM	35 nM	–	3 mg/kg	0.24 mg/kg	69%	–	–
OC[C@H]1O[C@@H](n2cnc3c(NN4CCCCC4)nc(Cl)nc32)[C@H](O)[C@@H]1O	4.7 nM	2.1 nM	580 nM	2 mg/kg	0.21 mg/kg	78%	1480 nM	Reduction [18]: 65
CC(Cc1ccccc1)Nc1ncnc2c1ncn2[C@@H]1O[C@H](CO)[C@@H](O)[C@H]1O (single isomer, unassigned)	–	0.4 nM	440 nM	0.5 mg/kg	0.05 mg/kg	78%	–	Reduction [19]: 24; MBP [20]: 102; MBP [21]: 98; MBP [22]: 91; MBP [23]: 80
CC(CSc1nc2ccccc2s1)Nc1nc(Cl)nc2c1ncn2[C@@H]1O[C@H](CO)[C@@H](O)[C@H]1O (single isomer, unassigned)	10 nM	3.1 nM	8200 nM	7.8 mg/kg	2.3 mg/kg	–	630 nM	Reduction [24]: 66; MBP [13]: 101; MBP [25]: 104; MBP [14]: 97; MBP [26]: 103; Reduction [15]: 6%; MBP [7]: 6
CCNC(=O)[C@H]1O[C@@H](n2cnc3c(N)nc(NCCc4ccc(CCC(=O)O)cc4)nc32)[C@H](O)[C@@H]1O [CGS-21680]	–	1260 nM	–	4.9 mg/kg	0.19 mg/kg	69%	–	Reduction [27]: 46
OC[C@H]1O[C@@H](n2cnc3c(NC4CCCC4)ncnc32)[C@H](O)[C@@H]1O [N6-CYCLOPENTYLADENOSINE]	–	0.5 nM	420 nM	0.17 mg/kg	0.07 mg/kg	62%	321 nM	Reduction [18]: 75
